Reference: patent US8394355B2, “Use of UTP for the diagnosis of stenoses and other conditions of restricted blood flow” (P2 science Aps, priority 2009, dated 2013)
Where “and” joins values, the source holds several entries; their conditions need not be identical. Equal values may be shown once.

Key:
[1] = system: pulmonary and systemic circulation of healthy female pigs; assay: Systemic (central intravenous) nucleotide infusion in pigs, hemodynamic response; type: in vivo; settings: for increase in CO (cardiac output): FIG. 7b; for increase in HR from baseline: FIG. 7c; for decrease in SV (stroke volume): FIG. 7d; for MAP lowered by, from baseline: p<0.05, FIG. 7a; for decrease in PVR (pulmonary vascular resistance) from baseline: pig, in vivo
Description: In the present study, the hemodynamic response in the pulmonary and systemic circulation was tested, as well as the effect of central intravenous infusions of ATP, ADP, ADO, and UTP on the heart.
Infusion rates were aimed at exerting a pronounced systemic response in the lowering of arterial blood pressure, but avoiding a total circulatory collapse.
Methods: 10 healthy female pigs (Department of Experimental Medicine and Surgery, University of Copenhagen, Denmark) bred as a combination of the Danish Landrace (⅓) and Yorkshire (⅔), with a medium weight of 41±2 kg were investigated.
Mean arterial blood pressure (MAP) was obtained from the catheter in arcus aorta with the transducer (Pressure Monitoring Kit, Baxter, Deerfield, Ill., USA) positioned at the level of the heart. The left femoral artery was subsequently exposed and an ultrasound doppler probe attached for peripheral femoral artery flow measurements (CM-4000, Cardiomed, Norway). MAP, HR and peripheral flow were monitored and data continuously collected using a PowerLab system (Adinstruments, Australia). Cardiac Output (CO) was determined in triplicates by thermodilution, following an injection of 10 ml of cooled saline solution. Blood samples were withdrawn from catheters in aorta and the right atrium at baseline and at steady state when MAP had decreased maximally or by ˜50%. Calculated variables were: stroke volume of the heart (SV=CO/HR), pulmonary vascular resistance (PVR=(MPAP−PCWP)/CO), systemic vascular resistance (SVR=(MAP−MRAP)/CO), leg vascular conductance (LVC=LBF/(MAP−MRAP)), and arterial (aorta) and mixed venous (pulmonary artery) oxygen content (Hb*1.34*O2 saturation). In the calculation of LVC, MRAP was used as an estimate of mean femoral venous pressure (MFVP), as MRAP was found in a series of measurements to equal MFVP, as estimated in 10 supine pigs. As a potential estimate for myocardial oxygen demand the rate pressure product (RPP=MAP*HR) was also calculated.
Drug infusions: Each animal was administered the nucleotides ATP, UTP, ADP (Sigma, St. Louis, Mo., USA) and ADO (Item Development AB, Stocksund, Sweden), through the internal jugular vein in the right atrium, in random order following blinded allocation. The nucleotides and ADO were prepared by dissolving in saline so as to achieve the target concentration of ATP (40±0.5 μmol/min), ADP (43±8 μmol/min), UTP (up to 1,600 μmol/min), and ADO (73±7 μmol/min). The nucleotides were infused in increasing dosages at 2 min intervals aiming at reducing MAP by maximally ˜50%. Thereafter, that specific infusion rate was maintained for ˜3-5 min. After each intervention the animal rested for ˜30 min, allowing resting cardiovascular variables to be reestablished. Thereafter, a new cycle of nucleotide infusion was administered. In the present study we aimed to allow the drugs to reduce MAP by ˜50%, but without inducing a hemodynamic and circulatory collapse, to simulate a pronounced state of systemic vasodilation, as may be observed for instance in a shock condition.

[2] = system: coronary arteries in humans with coronary artery disease; assay: FFR during continuous intracoronary infusion via guiding catheter (Example 2); type: in vivo; design: key to lowest FFR level / difference in FFR between adenosine and UTP / FFR / FFR Mean: FFR = Pd/Pa (distal/proximal coronary pressure ratio); settings: for adverse effects during IC continuous infusion / % of patients with FFR ≦ 0.75 / % of patients with FFR ≦ 0.8: guiding catheter study; for % of patients with FFR ≦ 0.75 / % of patients with FFR ≦ 0.8: 240 μg/min (n = 23); for lowest FFR level: lowest mean over the dose response curve, ± 2SEM, P<0.05
Description: The study was performed in 23 patients undergoing elective coronary arteriography (CAG) due to repetitive episodes of typical ischemic chest pain or in patients with recent Non-ST Elevated Myocardial Infarction (>2 days from entry into study). In eligible patients with uni- or multivessel coronary artery disease, lesions with stenosis of at least 50% of their diameter and that were thought to require PCI on the basis of angiographic appearance and clinical data were identified.
In the first part of the experiment, FFR and Coronary Flow (velocity, CFR) were measured after the induction of coronary hyperemia by a continuous intracoronary infusion of UTP (Jena Bioscience GmbH, Germany) and adenosine in random order in a guide catheter (5F catheter, Cordis Corp.). Two UTP doses of 240 and 360 μg/min were tested. UTP was prepared by dissolving 100 mg of UTP trisalt (Sigma Aldrich) in 50 ml isotonic NaCl. Of this 50 ml solution, 40 ml was filter sterilized and added to sterile NaCl solution to a final volume of 500 ml, providing a 0.16 mg/ml concentration. 8-10 50 ml syringes of this solution can be prepared (2 syringes per FFR study). 3 ml/min=480 μg/min=0.9 μmol/min. Subjects thus received either 1.5 ml/min of UTP infusion or 2.25 mL/min of UTP infusion for a total of 3 minutes each. Patients also received adenosine (Sigma Aldrich) in the same eqipotent concentration.
All measurements were performed on at least 2 separate occasions to achieve a reproducible result with a mean value calculated. After each measurement, care was taken that APV returned to baseline before the administration of the next dose. For all measurements using both drugs and both routes of administration, changes in heart rate, blood pressure, and ECG were recorded.
In the second part of the experiment, a full dose response curve was generated for a gradual incremental increase in continuous UTP infusion while both CFR and FFR were measured simultaneously prior to percutaneous coronary intervention (PCI). Hyperemia was induced at 80 μg/min of continuous intracoronary UTP and adenosine, and the flow reserve values were compared (Table 1).
In the third part of the experiment, both CFR and FFR were measured simultaneously after percutaneous coronary intervention (PCI). Hyperemia was induced by either 240 or 360 μg/min of continuous intracoronary UTP and equipotent adenosine, and the flow reserve values were in some patients compared with the hyperemic response of a complete, proximal coronary occlusion for 30 s.
FFR is defined as the ratio of hyperemic flow in a stenotic artery to the hyperemic flow in the same artery if there was no stenosis present. FFR therefore expresses maximum hyperemic blood flow in a stenotic vessel as a fraction of its normal value. FFR can be calculated from intracoronary pressure measurements obtained during maximal hyperemia by the following equation: FFR═Pd−Pv/Pa−Pv→Pd/Pa, where Pa is the mean proximal coronary pressure (mean aortic pressure), Pd is the mean distal coronary pressure, and Pv is the mean central venous pressure. The coronary flow (velocity) reserve is the ratio of maximum to baseline hyperemic coronary flow velocity and is used as a surrogate for CFR. Using the Volcano Combomap®, APV throughout the cardiac phase was measured and CFR calculated from APV(hyperemia)/APV(basal).

[3] = mean of six patients, 80 μg/min

SMILES	increase in CO (cardiac output) [1]	increase in HR from baseline [1]	decrease in SV (stroke volume) [1]	decrease in SVR (systemic vascular resistance) from baseline ([1]; p<0.05) [%]	increase in LVC (leg vascular conductance) from baseline ([1]; p<0.05)	MAP lowered by, from baseline [1] [%]	decrease in PVR (pulmonary vascular resistance) from baseline [1]	adverse effects during IC continuous infusion [2]	% of patients with FFR ≦ 0.75 [2] [%]	% of patients with FFR ≦ 0.8 [2] [%]	lowest FFR level [2]	FFR Mean [2, 3]	FFR Mean ([2]; mean, 160 μg/min)	FFR Mean ([2]; mean, 240 μg/min)	FFR Mean ([2]; mean, 320 μg/min)	FFR Mean ([2]; mean, 400 μg/min)	other results
Nc1ncnc2c1ncn2[C@@H]1O[C@H](CO)[C@@H](O)[C@H]1O [adenosine]	31.4±9.9%	did not increase	did not significantly change SV	59.0±3.0	~50%	47.2±1.5	34.3±2.6%	most patients felt uncomfortable chest pain and 2 patients had 3 degree A-V block	39	43	0.81±0.11	0.86	0.81	0.81	0.82	0.82	decrease in LBF (leg blood flow) from baseline ([1]; p<0.05): 19.4±10.7%; increase in LVC (leg vascular conductance) from baseline ([1]; p<0.05, listed as ADO): 56.4±12.9%; infusion rate at target MAP ([1]; target ~50% reduction in baseline MAP, right atrium infusion): 72.7 ± 6.6 µmol/min; FFR ([2]; individual patients (row = patient no.), IC continuous infusion 80 μg/min, guide catheter, listed as ADO): 0.83 and 0.95 and 0.76 and 0.88; FFR ([2]; individual patients, 160 μg/min, listed as ADO): 0.80 and 0.95 and 0.60 and 0.96 and 0.75; FFR ([2]; individual patients, 240 μg/min, listed as ADO): 0.81 and 0.94 and 0.60 and 0.87 and 0.91 and 0.71; FFR ([2]; individual patients, 320 μg/min, listed as ADO): 0.79 and 0.96 and 0.54 and 1.02 and 0.89 and 0.70; FFR ([2]; individual patients, 400 μg/min, listed as ADO): 0.56 and 1.01 and 0.89
O=c1ccn([C@@H]2O[C@H](COP(=O)(O)OP(=O)(O)OP(=O)(O)O)C(O)[C@@H]2O)c(=O)[nH]1 (some centres unmarked) [UTP, Uridine 5-triphosphate]	72.5±15.2% and ~70%	51.1±9.0%	did not significantly change SV	62.9±2.6	150.0±17.1% and ~150%	35.0±3.2	did not significantly alter	None of the UTP-treated patients in the current trial had chest pain, dyspnea, second or 3 degree A-V block or changes in systemic blood pressure and heart rate	47	65	0.74±0.13	0.74	0.77	0.79	0.78	0.79	arrhythmias (missed beats, VT, SVT or AV nodal block) ([1]; intravenous systemic infusion): does not produce arrhythmias; infusion rate giving the ~35% reduction in MAP ([1]; maximal MAP reduction obtainable with UTP): 86.5 ± 18.2 µmol/min; increase in LBF (leg blood flow) ([1]; p<0.05, FIG. 6c): 53.7±17.8% and ~50%; decrease in rate pressure product ([1]; tendency): ~10%; FFR in comparison to adenosine infusion ([2]; all 23 patients, IC 240 μg/min, p=0.003, FIG. 1): significantly decreased; time to induction of maximal hyperemia ([2]; all IC continuous infusion rates, versus adenosine): shorter; optimal dose for achieving maximal coronary hyperemia ([2]; guide catheter method): 80 to 400 µg/min; FFR ([2]; individual patients (row = patient no.), IC continuous infusion 80 μg/min, guide catheter): 0.73 and 0.79 and 0.88 and 0.56; FFR ([2]; individual patients, 160 μg/min): 0.90 and 0.73 and 0.79 and 0.86 and 0.56; FFR ([2]; individual patients, 240 μg/min): 0.89 (2×) and 0.73 and 0.79 and 0.87 and 0.55; FFR ([2]; individual patients, 320 μg/min): 0.90 and 0.89 and 0.72 and 0.77 and 0.86 and 0.56; FFR ([2]; individual patients, 400 μg/min): 0.90 and 0.92 and 0.56; difference in FFR between adenosine and UTP ([2]; standard deviation of 0.15-0.17, p=0.003): 0.05
